According to ChEMBL document CHEMBL1799910, “Optimization of 1,2,3,4-tetrahydroacridin-9(10H)-ones as antimalarials utilizing structure-activity and structure-property relationships” (J Med Chem, 2011):
Converted amounts (≈) assume the structure as drawn.

How the values were obtained:
[1] = Cytotoxicity index, ratio of EC50 for mouse J774 cells to EC50 for chloroquine, mefloquine, pyrimethamine and atovaquone-resistant Plasmodium falciparum TM90-C2B; type: cell-based; settings: read-out: Ratio EC50
[2] = system: Plasmodium falciparum; assay: Resistance index, ratio of EC50 for chloroquine, mefloquine, pyrimethamine and atovaquone-resistant Plasmodium falciparum TM90-C2B to EC50 for chloroquine and pyrimethamine-resistant Plasmodium falciparum W2; type: functional
[3] = system: Plasmodium falciparum; assay: Antimalarial activity against chloroquine, mefloquine, pyrimethamine and atovaquone-resistant Plasmodium falciparum TM90-C2B infected in human A positive erythrocytes after 72 hrs by SYBR Green I assay; type: functional, organism-based
[4] = Partition coefficient, log D of the compound at pH 7.4 by HPLC analysis; settings: octanol/water
[5] = Stability in mouse liver microsomes; type: ADME, Microsome; settings: liver microsomes
[6] = Permeability of the compound by PAMPA method at pH 7.4; type: ADME; settings: read-out: permeability
[7] = system: Plasmodium falciparum; assay: Antimalarial activity against chloroquine and pyrimethamine-resistant Plasmodium falciparum W2 infected in human A positive erythrocytes after 72 hrs by SYBR Green I assay; type: functional, organism-based; settings: W2, 72 h
[8] = Aqueous solubility of compound at pH 7.4 by HPLC analysis; settings: buffer
[9] = system: J774; assay: Cytotoxicity against mouse J774 cells after 72 hrs by Cell titer 96 aqueous one solution cell proliferation assay; type: cell-based; settings: J774, 72 h

| Compound | selectivity ratio [1] | Ratio EC50 [2] | EC50 [3] [nM] | logD [4] | half-life [5] [min] | Papp [6] [×10⁻⁶ cm/s] | EC50 [7] [nM] | solubility [8] [µM] | EC50 [9] [nM] |
| --- | --- | --- | --- | --- | --- | --- | --- | --- | --- |
| COc1ccc2c(=O)c3c([nH]c2c1)CCC(C)(C)C3 | ≥ 100 | 3.22 | 175 | 2.2 | 77 | 88 | 54.3 | 61 (≈ 15.7 µg/mL) | > 40000 |
| COc1ccc2c(=O)c3c([nH]c2c1)CC(C)(C)CC3 | ≥ 100 | 0.32 | 112 | 2.2 | 24.8 | 64 | 355 | 92 (≈ 23.7 µg/mL) | > 40000 |
| Cc1cc(Oc2ccc(OC(F)(F)F)cc2)ccc1-c1ccc2[nH]c3c(c(=O)c2c1)CSCC3 | ≥ 100 | 11.8 | 326 | 3.6 | 15.1 | < 1 | 27.7 | 7 (≈ 3.38 µg/mL) | > 5000 |
| O=c1c2c([nH]c3ccc(-c4ccc(COc5ccc(OC(F)(F)F)cc5)cc4)cc13)CCSC2 | ≥ 100 | 22 | 2840 | 3.5 |  | 3 | 129 | 12 (≈ 5.8 µg/mL) | > 10000 |
| O=c1c2c([nH]c3ccc(-c4ccc(COc5ccccc5)cc4)cc13)CCSC2 | ≥ 100 | 15.9 | 706 | 2.8 |  | 7 | 44.5 | 1 (≈ 0.4 µg/mL) | > 1000 |
| O=c1c2c([nH]c3ccc(-c4ccc(OCc5ccccc5)cc4)cc13)CCSC2 | ≥ 100 | 10.3 | 370 | 2.8 |  | < 1 | 35.9 | 1 (≈ 0.4 µg/mL) | > 1000 |
| O=c1c2c([nH]c3ccc(-c4ccc(C(F)(F)F)cc4)cc13)CCSC2 | ≥ 100 | 2.9 | 293 | 2.4 | 11.2 | < 1 | 101 | 10 (≈ 3.61 µg/mL) | > 10000 |
| O=c1c2c([nH]c3cc(-c4c(F)cccc4F)ccc13)CCCC2 | ≥ 100 | 0.35 | 25.3 | 3 |  | 339 | 72.3 | 0.3 (≈ 0.0934 µg/mL) | > 100 |
| CN(C)c1ccc(-c2ccc3c(=O)c4c([nH]c3c2)CCCC4)cc1 | ≥ 100 | 1.62 | 161 | 1.3 |  | 199 | 99.2 | 11 (≈ 3.5 µg/mL) | > 10000 |
| COc1ccc2c(=O)c3c([nH]c2c1)CCCC3 | ≥ 100 | 1.11 | 99.9 | 1.9 | 6.8 | 25 | 89.9 | 82 (≈ 18.8 µg/mL) | > 40000 |
| Cc1cccc2c(=O)c3c([nH]c12)CCCC3 | ≥ 100 | 0.4 | 888 | 1.9 | 6.4 | 26 | 2200 | 47 (≈ 10 µg/mL) | > 40000 |
| Cc1ccc2c(=O)c3c([nH]c2c1)CCCC3 | ≥ 100 | 1.01 | 152 | 2 | 20.1 | 27 | 150 | 89 (≈ 19 µg/mL) | > 40000 |
| O=c1c2c([nH]c3cc(Cl)c(Cl)cc13)CCCC2 | ≥ 100 | 1.06 | 341 | 2.6 |  | 180 | 321 | 1 (≈ 0.268 µg/mL) | > 1000 |
| O=c1c2c([nH]c3c(F)ccc(F)c13)CCCC2 | ≥ 100 | 1.64 | 1320 | 1.3 |  | 12 | 804 | 159 (≈ 37.4 µg/mL) | > 40000 |
| O=c1c2c([nH]c3c(F)cc(F)cc13)CCCC2 | ≥ 100 | 0.15 | 405 | 1.7 |  | 29 | 2690 | 66 (≈ 15.5 µg/mL) | > 40000 |
| O=c1c2c([nH]c3cc(F)cc(F)c13)CCCC2 | ≥ 100 | 2.72 | 45 | 1.5 | 3.6 | 13 | 16.5 | 3 (≈ 0.706 µg/mL) | > 2000 |
| O=c1c2c([nH]c3c(F)c(F)ccc13)CCCC2 | ≥ 100 | 0.36 | 378 | 1.9 |  | 38 | 1050 | 93 (≈ 21.9 µg/mL) | > 40000 |

| Compound | selectivity ratio [1] | Ratio EC50 [2] | EC50 [3] [nM] | logD [4] | half-life [5] [min] | Papp [6] [×10⁻⁶ cm/s] | EC50 [7] [nM] | solubility [8] [µM] | EC50 [9] [nM] |
| --- | --- | --- | --- | --- | --- | --- | --- | --- | --- |
| O=c1c2c([nH]c3cc(F)c(F)cc13)CCCC2 | ≥ 100 | 0.91 | 118 | 1.9 |  | 28 | 129 | 18 (≈ 4.23 µg/mL) | > 10000 |
| COc1cc2c(=O)c3c([nH]c2cc1Cl)CCCC3 | ≥ 100 | 0.33 | 11.5 | 1.3 |  | 24 | 35.2 | 33 (≈ 8.7 µg/mL) | > 20000 |
| COc1cc2[nH]c3c(c(=O)c2cc1Cl)CCCC3 | ≥ 100 | 0.79 | 24.1 | 2.2 |  | 85 | 30.6 | 17 (≈ 4.48 µg/mL) | > 10000 |
| COc1cc2[nH]c3c(c(=O)c2cc1Cl)CSCC3 | ≥ 100 | 4.94 | 130 | 1 |  | 101 | 26.3 | 13 (≈ 3.66 µg/mL) | > 10000 |
| COc1cc2[nH]c3c(c(=O)c2cc1Cl)CC(F)(F)CC3 | ≥ 100 | 0.07 | 5.6 | 2.1 | 8.5 | 107 | 76.7 | 10 (≈ 3 µg/mL) | > 10000 |
| O=c1c2c([nH]c3ccc(Cl)cc13)CCC(F)(F)C2 | ≥ 100 | 1.52 | 226 | 2 | 40.8 | 62 | 148 | 4 (≈ 1.08 µg/mL) | > 2000 |
| COc1ccc2c(=O)c3c([nH]c2c1)CCC(F)(F)C3 | ≥ 100 | 1.02 | 351 | 1.6 | 15.8 | 39 | 343 | 14 (≈ 3.71 µg/mL) | > 10000 |
| COc1cc2[nH]c3c(c(=O)c2cc1C)CCCC3 | ≥ 100 | 0.46 | 16.2 | 2 |  | 50 | 34.8 | 23 (≈ 5.6 µg/mL) | > 20000 |
| COc1cc2[nH]c3c(c(=O)c2cc1C)CSCC3 | ≥ 100 | 0.86 | 96.9 | 0.9 |  | 68 | 113 | 14 (≈ 3.66 µg/mL) | > 10000 |
| COc1cc2[nH]c3c(c(=O)c2cc1Cl)C[S+]([O-])CC3 (configuration not stated) |  |  | 1360 | 1.3 | 990 |  | 4710 |  | > 40000 |
| O=c1c2c([nH]c3ccc(-c4ccncc4)cc13)CCSC2 | ≥ 100 | 0.8 | 4990 | 0.8 |  | 15 | 6210 | 45 (≈ 13.2 µg/mL) | > 20000 |
| O=c1c2c([nH]c3ccc(-c4cccnc4)cc13)CCSC2 | ≥ 100 | 1.11 | 8490 | 0.8 |  | 3 | 7620 | 37 (≈ 10.9 µg/mL) | > 20000 |
| O=c1c2c([nH]c3ccc(-c4ccc(F)cc4F)cc13)CCSC2 | ≥ 100 | 0.41 | 78.4 | 3.6 |  | 10 | 193 | 7 (≈ 2.31 µg/mL) | > 5000 |
| Cc1cc(Cl)ccc1-c1ccc2[nH]c3c(c(=O)c2c1)CSCC3 | ≥ 100 | 0.67 | 23.2 | 2.4 | 8.4 | < 1 | 34.6 | 2 (≈ 0.684 µg/mL) | > 2000 |
| O=c1c2c([nH]c3ccc(-c4ccc(OC(F)(F)F)cc4)cc13)CCSC2 | ≥ 100 | 0.61 | 58 | 2.5 |  | < 1 | 95.1 | 1 (≈ 0.377 µg/mL) | > 1000 |
| O=c1c2c([nH]c3ccc(-c4cccc(Oc5ccc(F)cc5)c4)cc13)CCSC2 | ≥ 100 | 3.5 | 143 | 2.8 |  | 2 | 40.9 | 0.3 (≈ 0.121 µg/mL) | > 100 |
| O=c1c2c([nH]c3ccccc13)CCCC2 | ≥ 100 | 0.45 | 325 | 3 | 18.2 | 10 | 719 | 24 (≈ 4.78 µg/mL) | > 40000 |
